Measurements from patent publication US12569565B2, “Compositions and methods for the treatment of viral infections” (Cidara Therapeutics, Inc., priority 2018, dated 2026).
Several values for one entry are separate records, joined by “and”; a condition that tells them apart may be missing. Equal values may be shown once. Read-outs that look alike come from different tables or passages of the source.

What was measured:
[1] = tested on: H1N1 A/Netherlands/602/2009; assay type: cell-based, influenza A virus
[2] = tested on: influenza A/WSN/1933 (H1N1); experiment: CPE assay at different multiplicities of infection (Example 94); assay type: cell-based, influenza A virus; conditions: read-out: EC50 H1N1 A/WSN/1933 (CPE in MDCK cells)
[3] = tested on: Influenza A/Puerto Rico/8/1934 (H1N1); parameters: species or system female BALB/c mice; conditions: mouse, in vivo
[4] = tested on: INFV A H3N2 A/Hong Kong/1/68; experiment: Lethal mouse influenza model, Study #2; assay type: in vivo, female BALB/c mice; conditions: 20 mg/kg PO B.I.D for 5 days from 8 h post infection
[5] = tested on: Influenza B/Brisbane/60/2008; parameters: species or system female BALB/c mice; conditions: mouse, in vivo
IAV H1N1 A/Texas/36/91 = tested on: IAV H1N1 A/Texas/36/91; parameters: species or system female BALB/c mice; conditions: mouse, in vivo
[6] = tested on: A/Puerto Rico/08/1934 (PR8), H1N1; assay type: in vivo, female BALB/c mice; conditions: for % Survival: 10 days
[7] = tested on: INFV A H1N1 A/Texas/36/91; experiment: Lethal mouse influenza model, Study #1; assay type: in vivo, female BALB/c mice; conditions: 20 mg/kg B.I.D PO 5 days from 8 h post infection
[8] = tested on: INFV A H1N1 A/Texas/36/91; experiment: Lethal mouse influenza model, Study #3 (dosing 28 days before challenge); assay type: in vivo, female BALB/c mice; conditions: 20 mg/kg PO twice daily 5 days from 8 h post infection
Source text: The experiment comprised 7 groups of 5 mice. At day 0, all mice were challenged with 1×LD90 H1N1 A/Texas/36/91. Groups 1-6 received treatment IV, 28 days before challenge (Table 12). Vehicle (PBS) was included as an additional negative control. […] All mice were monitored for survival (FIGS. 31A-31F) for 15 days after challenge.

[9] = tested on: INFV A H1N1 A/Texas/36/91; experiment: Lethal mouse influenza model, Study #4 (treatment window); assay type: in vivo, female BALB/c mice
Source text: The experiment comprised 13 groups of 5 mice. At day 0, all mice were challenged with 1×LD90 H1N1 A/Texas/36/91. […] Vehicle (PBS) and Fc only were included as negative controls. […] All mice were monitored for survival (FIGS. 32A-32F) for 15 days after challenge.

[10] = 1 mg/mL in 1xPBS, over a week at 60° C.; HPLC 240 nm
[11] = tested on: Influenza A virus (INFV CA/09); assay type: cell-based
INFV B (B/Brisbane) = assay type: cell-based, influenza B virus
INFV CA/09 virus = assay type: cell-based, influenza virus
MDCK cells = conditions: four days post treatment, dilutions starting at 10 μM
INFV A (A/CA/09 H1N1) = assay type: cell-based, influenza A virus

**Q.** What does the source list for `CCOC(=O)C1=C[C@@H](OC(CC)CC)[C@H](NC(C)=O)[C@@H](N)C1` [Oseltamivir, oseltamivir]?
**A.** EC100 (CPE in MDCK cells) [1]: ~1000 nM; EC50 ([2]; MOI 0.001): 525 nM; EC50 ([2]; MOI 0.01): 1900 nM; EC50 ([2]; MOI 0.1): > 10000 nM; EC50 ([2]; MOI 1): > 10000 nM; Log reduction (PFU/mL) [3]: 0.24 and 0.52; % Survival [4]: 80%; Body weights [5]: 89 gm and 85 gm and 79 gm and 100 gm and 98 gm and 97 gm; survival [5]: 40%; % Survival (Day 14) (IAV H1N1 A/Texas/36/91): 100%; % Survival [6]: 20%

**Q.** Which results are given for `O=C1c2c(O)c(=O)ccn2N([C@@H]2c3ccccc3SCc3c2ccc(F)c3F)[C@@H]2COCCN12` [baloxavir]?
**A.** EC50 ([2]; Influenza A virus, MDCK, MOI 0.001): 5 nM; EC50 ([2]; Influenza A virus, MDCK, MOI 0.01): 4 nM; EC50 ([2]; Influenza A virus, MDCK, MOI 0.1): 79 nM; EC50 ([2]; Influenza A virus, MDCK, MOI 1): > 100 nM

**Q.** Which “% Survival” value [7] does the source give for `CCOC(=O)C1=C[C@@H](OC(CC)CC)[C@H](NC(C)=O)[C@@H](N)C1` [Oseltamivir phosphate] here?
**A.** 100%

**Q.** And the “Mean Survival” value [7]?
**A.** 15

**Q.** What about the survival [8] of the same compound?
**A.** survived

**Q.** What about the “Mean Survival” value [4] of the same compound?
**A.** 15 days

**Q.** What about the survival ([9]; 20 mg/kg PO bid × 5 days initiated at 48 hrs post-infection) of the same compound?
**A.** 0%

**Q.** What about the survival ([9]; 20 mg/kg PO bid × 5 days initiated at 72 hrs post-infection) of the same compound?
**A.** 20%

**Q.** Which degredation [10] does the source give for `C#CCOCCOCCOCCOCCN(C)C(=O)O[C@@H]([C@H]1OC(C(=O)O)=C[C@@H](NC(=N)N)[C@@H]1NC(C)=O)[C@H](O)CO` [Int-80] here?
**A.** less than 1%

**Q.** Which degredation [10] does the source give for `C#CCOCCOCCOCCOCCNC(=O)O[C@@H]([C@@H]1OC(C(=O)O)=C[C@H](NC(=N)N)[C@H]1NC(C)=O)[C@H](O)CO` [Int-4] here?
**A.** 15%

**Q.** For `CC(=O)N[C@H]1[C@H]([C@H](OCC(=O)NCCCCNCCCCNC(=O)CO[C@@H]([C@@H]2OC(C(=O)O)=C[C@H](NC(=N)N)[C@H]2NC(C)=O)[C@H](O)CO)[C@H](O)CO)OC(C(=O)O)=C[C@@H]1NC(=N)N` [Int-11], which “% Survival” value [6] is on record?
**A.** 0%

**Q.** And the “% Survival” value ([6]; 15 mg/kg)?
**A.** 100%

**Q.** What about the “delay in death relative to vehicle and hIgG1 Fc only controls” value ([6]; mouse, in vivo) of the same compound?
**A.** ≤ 2 days

**Q.** And the “greater cumulative dose required for efficacy equivalent to conjugate 6 (mass basis)” value ([6]; mouse, in vivo)?
**A.** 500 ×

**Q.** What does the source list for `CC(=O)N[C@H]1[C@H]([C@H](O)[C@H](O)CO)OC(C(=O)O)=C[C@@H]1N=C(N)N` [Zanamivir, zanamivir]?
**A.** EC50 [11]: 496 nM; EC50 ([2]; MOI 0.001): 137 nM; EC50 ([2]; MOI 0.01): 938 nM; EC50 ([2]; MOI 0.1): > 10000 nM; EC50 ([2]; MOI 1): > 10000 nM; EC50 (INFV B (B/Brisbane)): 383 nM; EC50 (INFV CA/09 virus): 469 nM; CC50 (MDCK cells): > 10000 nM; EC50 (INFV A (A/CA/09 H1N1)): 265 nM
